In article PMC11413854, “Reversible Control of Native GluN2B-Containing NMDA Receptors with Visible Light” (ACS Chemical Neuroscience, 2024):
Values joined by “and” are separate entries in the source; they are usually repeats but may differ in a detail not shown here. Equal entries are not always repeated. Where two headings read alike, the source gives them in different places.

Target: T1, GluN1/GluN2B receptors (UniProt P35439+Q01097)
T1 construct: expressed in transfected cells; host or cells: HEK-293 cells (ECACC, Cat #96121229)
Assay: Whole-cell patch-clamp and photomodulation in HEK cells expressing GluN1/GluN2B
Format: cell-based, rat GluN1, mouse GluN2B
Details: for inhibition of GluN1/GluN2B currents in HEK cells: 2 µM; for inhibition at 2 µM: HEK293, 2 µM, read-out: inhibition of GluN1/GluN2B currents in HEK cells
From the text: Now that we have established the photodependence of OptoNAM-3 action, we tested whether this compound could be used to perform real-time modulation of NMDAR activity with light. To answer this question, we turned to mammalian cells, whose transparency allows homogeneous illumination of all membrane-expressed NMDARs. OptoNAM-3 was perfused together with agonists glutamate and glycine on HEK cells expressing GluN1/GluN2B receptors. […] OptoNAM-3 thus allows real-time and reversible inhibition of GluN1/GluN2B activity with light. By plotting the effect of different concentrations of OptoNAM-3 in the dark and during UV illumination, we observed a 20-fold UV-induced shift of OptoNAM-3 IC50 compared to the dark condition (Figure 4C). […] The stronger photodependence of OptoNAM-3 action on HEK cells might stem either from differences between cellular expression systems (Xenopus oocytes vs HEK cells) or from the different irradiation contexts (in solution for experiments in Xenopus oocytes and in a cellular context for HEK cells) (see below).
HEK293 cells were used for heterologous expression of recombinant NMDA receptors studies using whole-cell patch-clamp. Wild-type NMDARs were expressed in HEK-293 cells (obtained from ECACC, Cat #96121229). HEK cells were cultured in DMEM + glutamax medium supplemented with 10% fetal bovine calf serum and 1% penicillin/streptomycin (5000 U/mL) and cultured under standard cell culture conditions (5% CO2, 37 °C). Transfections were performed using polyethylenimine (PEI) in a cDNA/PEI ratio of 1:3 (v/v). Cells were cotransfected with a DNA mixture containing plasmids encoding wild-type GluN1, wild-type GluN2A or GluN2B, and eGFP. The total amount of DNA was 1.0 μg per 500 μL of transfected medium containing […] diameter coverslip, and the mass ratio of GluN1:GluN2B:eGFP was 1:2:1 (1:1:1 for GluN2A). 150 μM of D-APV was added to the culture medium after transfection.
Receptor functionality, OptoNAM-3 photodependence (dark then UV light) of activity, and association/dissociation kinetics (with and without UV light) were assessed in patch-clamp recordings of lifted whole cells 24–72 h post transfection (cells were not lifted for the 2 light cycles protocol, i.e., when “perfusion turned off” was written below current traces). Positively transfected cells were visualized by GFP fluorescence. The extracellular solution contained (in mM) 140 NaCl, 2.8 KCl, 1 CaCl2, 10 HEPES, 20 sucrose, and 0.01 DTPA (290–300 mOsm), pH adjusted to 7.3 using NaOH. […] Currents were sampled at 10 kHz and low-pass filtered at 2 kHz using an Axopatch 200B amplifier, a 1550B Digidata, and Clampex 10.6 (Molecular Devices). Agonists (100 μM glutamate and 100 μM glycine) were applied using a multibarrel solution exchanger (RSC 200; BioLogic). Recordings were performed at a holding potential of −60 mV and at room temperature.
Computer-controlled light pulses during electrophysiological recordings were provided from high power sensitive LEDs (CoolLED pE-4000: 4 channels each controlling 4 wavelengths from 365 to 770 nm). The LED port was directly coupled via a microscope adaptor to the fluorescence port of an inverted IX73 Olympus microscope. The output beam of the LED entry was directed toward the sample thanks to a mirror (Chroma) and applied to the center of the recording dish through a 10× objective (irradiance ∼4 mW/mm^2 for 365, 385, and 435 nm; ∼6.5 mW/mm^2 for 460 nm; ∼2 mW/mm^2 for 490 and 525 nm; ∼1.5 mW/mm^2 for 500 nm, and ∼4.5 mW/mm^2 for 550 and 580 nm) (Olympus, 0.30 N.A.). Light power was measured in the center of the recording dish plane with an optical power meter (1916-C, Newport) equipped with a calibrated UV/D detector, and irradiance was obtained upon dividing light power by the illuminated field of the microscope 10× objective (19 mm^2).
Data were collected and analyzed using pClamp 10.5 (Molecular Devices) and fitted using Sigmaplot 11.0 (SSPS). […]

[1] = 550 nm illumination from UV state

T1 sequence (Q01097 27-1482, other chains not shown): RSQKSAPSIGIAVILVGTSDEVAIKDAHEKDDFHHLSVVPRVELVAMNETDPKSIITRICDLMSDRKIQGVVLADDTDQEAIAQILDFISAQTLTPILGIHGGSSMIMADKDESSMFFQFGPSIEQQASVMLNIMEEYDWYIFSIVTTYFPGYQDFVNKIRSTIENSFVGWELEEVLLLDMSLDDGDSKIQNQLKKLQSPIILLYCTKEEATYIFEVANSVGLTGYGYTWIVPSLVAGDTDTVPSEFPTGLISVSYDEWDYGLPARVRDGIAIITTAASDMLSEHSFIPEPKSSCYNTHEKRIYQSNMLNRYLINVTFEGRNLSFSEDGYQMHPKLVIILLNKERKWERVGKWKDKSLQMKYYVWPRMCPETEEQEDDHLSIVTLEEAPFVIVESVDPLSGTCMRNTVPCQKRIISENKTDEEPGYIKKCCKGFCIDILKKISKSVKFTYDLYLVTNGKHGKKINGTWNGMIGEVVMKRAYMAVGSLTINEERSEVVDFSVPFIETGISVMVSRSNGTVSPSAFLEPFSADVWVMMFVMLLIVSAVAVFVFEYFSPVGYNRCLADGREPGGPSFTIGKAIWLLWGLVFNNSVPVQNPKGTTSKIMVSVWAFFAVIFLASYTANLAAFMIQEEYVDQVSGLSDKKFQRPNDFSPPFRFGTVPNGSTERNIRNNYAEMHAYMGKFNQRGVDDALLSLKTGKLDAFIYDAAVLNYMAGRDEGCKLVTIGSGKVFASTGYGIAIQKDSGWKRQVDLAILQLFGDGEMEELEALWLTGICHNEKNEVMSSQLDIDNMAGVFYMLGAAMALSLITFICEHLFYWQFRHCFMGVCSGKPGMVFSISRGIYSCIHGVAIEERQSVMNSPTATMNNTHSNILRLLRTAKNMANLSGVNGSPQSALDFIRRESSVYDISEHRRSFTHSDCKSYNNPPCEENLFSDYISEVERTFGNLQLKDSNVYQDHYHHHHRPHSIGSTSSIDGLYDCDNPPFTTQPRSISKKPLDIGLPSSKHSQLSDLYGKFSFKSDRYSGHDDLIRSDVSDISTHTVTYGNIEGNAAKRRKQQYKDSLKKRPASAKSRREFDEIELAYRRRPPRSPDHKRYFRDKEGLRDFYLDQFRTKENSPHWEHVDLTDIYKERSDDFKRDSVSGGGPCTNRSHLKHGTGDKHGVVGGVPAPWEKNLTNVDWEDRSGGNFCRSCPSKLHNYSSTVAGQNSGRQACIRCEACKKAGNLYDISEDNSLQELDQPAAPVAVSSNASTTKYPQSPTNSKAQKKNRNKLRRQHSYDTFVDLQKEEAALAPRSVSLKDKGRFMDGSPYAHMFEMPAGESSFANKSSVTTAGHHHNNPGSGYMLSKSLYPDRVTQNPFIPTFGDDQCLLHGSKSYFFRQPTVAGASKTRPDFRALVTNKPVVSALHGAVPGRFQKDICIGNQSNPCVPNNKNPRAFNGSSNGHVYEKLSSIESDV

- inhibition of GluN1/GluN2B currents in HEK cells [1]: 58.559%
- inhibition of GluN1/GluN2B currents in HEK cells (dark): 76.928%
- inhibition of GluN1/GluN2B currents in HEK cells (under 365 nm illumination): 23.428%
- inhibition at 2 µM [1]: 59%
- inhibition at 2 µM (dark): 77%
- inhibition at 2 µM (under 365 nm illumination): 23%
- tau off of inhibition relief under UV illumination (HEK cells, 365 nm): 0.814 s
- tau off of inhibition relief by washout in the dark (HEK cells, dark): 30.520 s
- Relative current (IOpto/I0) ([OptoNAM-3] 0.050 µM, HEK cells, 365 nm illumination): 0.936
- Relative current (IOpto/I0) ([OptoNAM-3] 0.050 µM, HEK cells, dark PSS (trans)): 0.679
- Relative current (IOpto/I0) ([OptoNAM-3] 0.125 µM, HEK cells, 365 nm illumination): 0.926
- Relative current (IOpto/I0) ([OptoNAM-3] 0.125 µM, HEK cells, dark PSS (trans)): 0.513
- Relative current (IOpto/I0) ([OptoNAM-3] 0.300 µM, HEK cells, 365 nm illumination): 0.848
- Relative current (IOpto/I0) ([OptoNAM-3] 0.300 µM, HEK cells, dark PSS (trans)): 0.435
- Relative current (IOpto/I0) ([OptoNAM-3] 0.500 µM, HEK cells, dark PSS (trans)): 0.261
- Relative current (IOpto/I0) ([OptoNAM-3] 1.000 µM, HEK cells, 365 nm illumination): 0.722
- Relative current (IOpto/I0) ([OptoNAM-3] 1.000 µM, HEK cells, dark PSS (trans)): 0.205
- Relative current (IOpto/I0) ([OptoNAM-3] 1.500 µM, HEK cells, 365 nm illumination): 0.713
- Relative current (IOpto/I0) ([OptoNAM-3] 1.500 µM, HEK cells, dark PSS (trans)): 0.181
- Relative current (IOpto/I0) ([OptoNAM-3] 2.000 µM, HEK cells, 365 nm illumination): 0.705
- Relative current (IOpto/I0) ([OptoNAM-3] 2.000 µM, HEK cells, dark PSS (trans)): 0.166
- Relative current (IOpto/I0) ([OptoNAM-3] 2.500 µM, HEK cells, 365 nm illumination): 0.442
- Relative current (IOpto/I0) ([OptoNAM-3] 2.500 µM, HEK cells, dark PSS (trans)): 0.034
- IC50 (cell illuminated at 365 nm, read-out: IC50 on GluN1/GluN2B in HEK cells illuminated at 365 nm): 2950 nM and 3000 nM
- IC50 (dark, read-out: IC50 on GluN1/GluN2B in HEK cells in the dark): 150 nM
Compound: c1ccc(/N=N/c2ccc(CCNc3ccncc3)cc2)cc1 [OptoNAM-3, (E)-N-(4-(Phenyldiazenyl)phenethyl)pyridin-4-amine]
